Activity calls are given as the source filed them. No cut-off for these calls is given here.
How the values were obtained:
[1] = Anti-lymphangiogenic activity in HDLEC assessed as cell growth at 50 ug/ml incubated for 48 hrs by SRB staining based assay relative to control; type: functional; details: Homo sapiens, read-out: Activity
Homo sapiens = organism: Homo sapiens; assay: Anti-lymphangiogenic activity in HDLEC assessed as reduction in tube formation at 50 ug/ml incubated for 8 hrs by matrigel tube formation based inverted phase contrast microscopic analysis; type: functional
[2] = Cytotoxicity against HDLEC at 50 ug/ml incubated for 24 hrs by LDH assay; details: human
[3] = Anti-lymphangiogenic activity in HDLEC assessed as reduction in tube formation incubated for 8 hrs by matrigel tube formation based inverted phase contrast microscopic analysis; type: functional, Homo sapiens
[4] = Anti-lymphangiogenic activity in HDLEC assessed as cell growth at 10 ug/ml incubated for 48 hrs by SRB staining based assay relative to control; type: functional; details: Homo sapiens, read-out: Activity

| SMILES | growth at 50 µg/mL [1] | further results |
| --- | --- | --- |
| COC(=O)CNCC1=CC(=O)[C@@H]2[C@@H](C1)[C@]13C=C4N5C[C@H]6C[C@H](C)C[C@]5(CC[C@@]4(C)[C@]4(COC(=O)C4)[C@H]1[C@@](O)(OC3)[C@@H]2C)O6 | 38% | inhibition (Homo sapiens): Active; Activity [2]: Non-Toxic; IC50 [3]: 68 µM |
| COC(=O)CNCC1=CC(=O)[C@@H]2[C@@H](C1)[C@]13CO[C@@]4([C@@H]1O)N1C[C@H]5C[C@H](C)C[C@]1(CC[C@@]4(C)[C@]1(COC(=O)C1)[C@H]3C(=O)[C@@H]2C)O5 | 76% |  |
| CC1=CC(=O)[C@@H]2[C@@H](C1)[C@]13C=C4N5C[C@@H]6O[C@@]5(CC[C@@]4(C)[C@]4(COC(=O)C4)[C@H]1[C@@](O)(OC3)[C@@H]2C)C[C@@H](C)[C@H]6O | 101% |  |
| C[C@H]1C[C@@H]2CN3C4=C[C@@]56CO[C@]7(C)CC(=O)[C@@H]([C@H]5C7)[C@@H](C)C(=O)[C@H]6[C@@]5(COC(=O)C5)[C@]4(C)CC[C@@]3(C1)O2 | 82% |  |
| CC1=CC(=O)[C@@H]2[C@@H](C1)[C@]13CO[C@@]4([C@@H]1O)N1C[C@@H]5O[C@@]1(CC[C@@]4(C)[C@]1(COC(=O)C1)[C@H]3C(=O)[C@@H]2C)C[C@@H](C)[C@H]5O | 98% |  |
| C[C@H]1C[C@@H]2CN3[C@H]4C(=O)[C@@]56CO[C@]7(C)CC(=O)[C@@H]([C@H]5C7)[C@@H](C)C(=O)[C@@H]6[C@@]5(COC(=O)C5)[C@]4(C)CC[C@@]3(C1)O2 | 86% |  |
| CC1=CC(=O)[C@@H]2[C@@H](C1)[C@]1(C)C=C3N4C[C@H]5C[C@H](C)C[C@]4(CC[C@@]3(C)[C@]3(COC(=O)C3)[C@H]1C(=O)[C@@H]2C)O5 | 91% |  |
| CC1=CC(=O)[C@@H]2[C@@H](C1)[C@]1(C)C=C3N4C[C@@H]5O[C@@]4(CC[C@@]3(C)[C@]3(COC(=O)C3)[C@H]1C(=O)[C@@H]2C)C[C@@H](C)[C@H]5O | 85% |  |
| CC1=CC(=O)[C@@H]2[C@@H](C1)[C@]13C=C4N5C[C@H]6C[C@H](C)C[C@]5(CC[C@@]4(C)[C@]4(COC(=O)C4)[C@H]1[C@@](O)(OC3)[C@@H]2C)O6 | 88% |  |
| C[C@H]1C[C@@H]2CN3[C@](CC[C@@]4(C)[C@]5(COC(=O)C5)[C@H]5C(=O)[C@H](C)[C@@H]6C(=O)C=C(CO)C[C@H]6[C@@]56CO[C@@]34[C@@H]6O)(C1)O2 | 66% |  |
| C[C@H]1C[C@@H]2CN3C4=C[C@@]56CO[C@]7(C)CC(=O)[C@@H]([C@H]5C7)[C@@H](C)C(=O)[C@@H]6[C@@]5(COC(=O)C5)[C@]4(C)CC[C@@]3(C1)O2 | 85% |  |
| CC1=CC(=O)[C@@H]2[C@@H]([C@@H]1O)[C@]1(C)C=C3N4C[C@H]5C[C@H](C)C[C@]4(CC[C@@]3(C)[C@]3(COC(=O)C3)[C@H]1C(=O)[C@@H]2C)O5 | 75% |  |
| C[C@H]1C[C@@H]2CN3C4=C[C@@]56CO[C@@](O)([C@H](C)[C@@H]7C(=O)C=C(CO)C[C@H]75)[C@@H]6[C@@]5(COC(=O)C5)[C@]4(C)CC[C@@]3(C1)O2 | 60% | inhibition (Homo sapiens): Active; Activity [2]: Non-Toxic; IC50 [3]: 99 µM |
| CC1=CC(=O)[C@@H]2[C@@H](C1)[C@]13CO[C@@]4([C@@H]1O)N1C[C@H]5C[C@H](C)C[C@]1(CC[C@@]4(C)[C@]1(COC(=O)C1)[C@H]3C(=O)[C@@H]2C)O5 | 81% |  |
| CC1=CC(=O)[C@@H]2[C@@H](C1)[C@]13CO[C@@]4([C@@H]1O)N1C[C@H]5C[C@H](C)C[C@@]1(O5)[C@@H](O)C[C@@]4(C)[C@]1(COC(=O)C1)[C@H]3C(=O)[C@@H]2C | 100% |  |
| CC1=CC(=O)[C@@H]2[C@@H](C1)[C@]13C=C4N5C[C@H]6C[C@H](C)C[C@@]5(O6)[C@@H](O)C[C@@]4(C)[C@]4(COC(=O)C4)[C@H]1[C@@](O)(OC3)[C@@H]2C | 83% |  |
| CO[C@H]1C[C@@H]2CC[C@@H](C)[C@@](O)(O2)C(=O)C(=O)N2CCCC[C@H]2C(=O)O[C@H]([C@H](C)C[C@@H]2CC[C@@H](O)[C@H](OC)C2)CC(=O)[C@H](C)/C=C(\C)[C@@H](O)[C@@H](OC)C(=O)[C@H](C)C[C@H](C)/C=C/C=C/C=C/1C [SIROLIMUS] |  | growth at 10 µg/mL [4]: 17%; IC50 [3]: 57 µM |
| C[C@H]1C[C@@H]2CN3C4=C[C@@]5(C)[C@@H]6CC(CO)=CC(=O)[C@H]6[C@@H](C)C(=O)[C@@H]5[C@@]5(COC(=O)C5)[C@]4(C)CC[C@@]3(C1)O2 | 56% | inhibition (Homo sapiens): Active; Activity [2]: Non-Toxic; IC50 [3]: 98 µM |

— ChEMBL document CHEMBL4376824, “Anti-Lymphangiogenic Alkaloids from the Zoanthid Zoanthus vietnamensis Collected in Taiwan” (J Nat Prod, 2019)
